In the NIST ThermoML archive (doi:10.1016/j.tca.2019.02.008):

How the values were obtained:
[1] = for vapor or sublimation pressure: Transpiration method; for Triple point temperature: DSC
[2] = Molar enthalpy of transition or fusion; conditions: DSC

Br.CN [methylammonium bromide]
vapor or sublimation pressure [kPa], [1]
Conditions	433 K	444 K	454 K	463 K	468 K	473 K	488 K	493 K	498 K	503 K
Crystal 1	–	–	–	–	–	–	0.1234	0.1563	0.1897	0.2394
Crystal 2	0.0057	0.0104	0.0202	0.0348	0.0413	0.0576	–	–	–	–

Conditions	Molar enthalpy of transition or fusion, Crystal 2 [kcal/mol]	Molar enthalpy of transition or fusion, Crystal 3 [kcal/mol]	Triple point temperature, Crystal 1 [K]	Triple point temperature, Crystal 2 [K]	Triple point temperature, Crystal 3 [K]
[1]	–	–	520.5	480.8	392.1
[2]	0.868	0.351	–	–	–
